The text below walks through data of PubChem BioAssay (NCI).

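Dose response: 5 concentrations. Exposure: 48 h. Format: 96-well plates. Endpoint: linear interpolation; highest concentration if not reached. GI50 marks 50% less growth. Definition used: TGI = concentration required for complete inhibition of growth.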 A value given as a limit tells only on which side of the number the result lay.

What all share (assay): DTP human tumour cell line panel, 48 h
The test system of test [1] is DU-145 prostate.
In test [2] the test system is EKVX NSCLC.
Test [3] deals with HS 578T breast.
Test [4] has as its system M14 melanoma.
Test [5] deals with MALME-3M melanoma.
The test system of test [6] is MDA-MB-435.
Test [7] deals with SK-MEL-28 melanoma.
The subject of test [8] is SR leukemia.
Test [9] has as its system T-47D breast.
Test [10] has as its system U251 CNS.

As usually defined, the GI50 is the concentration at which growth is held to half of that of the control. As a reminder, the TGI is the concentration at which net growth stops. A lower TGI goes with greater sensitivity of the cells. As for `COC(=O)[C@@]12OC[C@]34[C@H]([C@@H](O)[C@@H]1O)[C@@]1(C)[C@H](O)C(=O)C=C(C)[C@@H]1C[C@H]3OC(=O)C(OC(C)=O)[C@@H]24` (stereo partly drawn), the 50% growth inhibitory concentration (GI50) in test [1] was 0.0445 µM; in test [2], 0.0529 µM; in test [3], 0.0193 µM; in [4], 0.0261 µM; in [5] it was 0.0151 µM; in [6] it was 0.0319 µM. Besides, the 50% growth inhibitory concentration (GI50) in [7] is 0.019 µM; in test [8], 0.0195 µM; in [9], 0.0362 µM; in test [10], 0.0207 µM. Moreover, the TGI in test [1] came out at 0.206 µM; in test [2], 0.372 µM; in test [3], 0.0523 µM; in [4], 0.0785 µM; in test [5], 0.0466 µM; in test [6], 0.148 µM. Further, the concentration for total growth inhibition (TGI) in test [7] was 0.0642 µM; in test [8] it was 0.0425 µM; in test [9], 0.3 µM; in test [10] it was 0.0443 µM.

For the compound `C[C@]12CCc3sc(NCCc4ccccc4)nc3C1=CC[C@@H]1[C@@H]2CC[C@]2(C)C(=O)CC[C@@H]12`, the GI50 in test [1] was 3.64 µM; in test [2], 90.1 µM; in test [3], 2.85 µM; in test [4], 3.63 µM; in test [5], 2.18 µM; in [6], 3.01 µM. The GI50 in test [7] was 3.37 µM; in test [8], 3.06 µM; in [9], 3.05 µM; in [10], 4.97 µM. Also, the TGI in test [1] was above 100 µM; in [2] it was above 100 µM; in [3] it was above 100 µM; in test [4], above 100 µM; in test [5], 6.82 µM; in [6] it was above 100 µM. Moreover, the TGI in [7] was 18.9 µM; in [8], above 100 µM; in test [9] it was 25.2 µM; in test [10] it was above 100 µM.

Take `COc1ccc(C2CC(C)(O)Oc3cc4c(cc32)OCO4)cc1` (stereo not drawn): the concentration for total growth inhibition (TGI) in [1] was above 100 µM; in [2], above 100 µM; in [3], 97.9 µM; in [4], above 87.8 µM; in test [5] it was above 100 µM; in test [6], 42.9 µM. In addition, the total growth inhibition concentration (TGI) in [7] was above 100 µM; in [8] it was above 78.9 µM; in test [9], above 50.5 µM; in test [10], above 100 µM.

Take `NC(=O)c1ccc(I)c(N=O)c1`: the GI50 was 43.7 µM in test [1]; 81.1 µM in [2]; 38.5 µM in test [3]; 30.5 µM in [4]; 34 µM in [5]; 29.6 µM in test [6]. In addition, the GI50 in [7] was 46.9 µM; in test [8], 40.6 µM; in test [9] it was 32.3 µM; in test [10], 18.6 µM. Further, the TGI in [1] is above 100 µM; in test [2], above 100 µM; in test [3], above 100 µM; in test [4], 83.1 µM; in test [5], above 100 µM; in test [6], 89.5 µM. In addition, the TGI in [7] was above 100 µM; in [8], above 100 µM; in test [9], 87.8 µM; in test [10], 36.8 µM.

For `CC1OC(OC2C[C@](O)(C(=O)CF)Cc3c(O)c4c(c(O)c32)C(=O)c2ccccc2C4=O)CC(N)C1O` (stereo partly drawn), the TGI turned out to be 1.14 µM in test [1]; 4.64 µM in test [2]; 0.117 µM in test [3]; 0.368 µM in test [4]; 0.191 µM in test [5]; 0.321 µM in test [6]. The TGI in test [7] worked out at 1.91 µM; in [8] it was 0.0708 µM; in [9], 0.151 µM; in [10], 0.394 µM.

Take `CCC1CN2C(=N1)c1ccccc1-c1cc(Cl)ccc12` (stereo not drawn): the GI50 in test [1] was 2.31 µM; in test [2], 4.74 µM; in [3], 6.58 µM; in test [4], 3.13 µM; in [5] it was 2.8 µM; in test [6] it was 4.39 µM. The GI50 is 4.97 µM in test [7], 1.51 µM in test [8], 3.52 µM in test [9] and 3.18 µM in [10]. Besides, the TGI in test [1] stood at 6.26 µM; in test [2] it was 26.6 µM; in [3] it was 34.5 µM; in test [4] it was 10.4 µM; in test [5], 8.15 µM; in test [6], 16.2 µM. In addition, the total growth inhibition concentration (TGI) in test [7] is 18.4 µM; in [8], 4.53 µM; in test [9], 23 µM; in test [10] it was 11.6 µM.

As to `COc1ccc2c(=O)cc(-c3ccncc3)oc2c1OC`, the TGI in [1] is above 100 µM; in test [2] it was above 100 µM; in [3] it was 53.7 µM; in test [4], 39 µM; in test [5], 96.9 µM; in test [6] it was above 100 µM. For the same compound, the TGI was 93.1 µM in test [7], 39.4 µM in test [8], above 100 µM in test [9] and above 100 µM in test [10].

For the compound `O=S(=O)(Nc1ccc(Br)c(Cl)c1)c1ccc(-c2cnc(C3CC3)o2)cc1`, the GI50 in test [1] is 1.52 µM; in test [2] it was 2.07 µM; in [3], 0.351 µM; in [4] it was 0.458 µM; in test [6], 0.177 µM; in test [7], 4.35 µM. For the same compound, the values for the 50% growth inhibitory concentration (GI50) in test [8], in [9] and in test [10] were 0.38 µM, 0.437 µM and 0.507 µM, respectively. In addition, the TGI in [1] was determined as 17.6 µM; in [2], 21 µM; in test [3], 18.3 µM; in test [4] it was 14.1 µM; in test [6], 2.45 µM; in test [7] it was 22 µM. Besides, the TGI was above 49.4 µM in [8], 21.1 µM in test [9] and 15.4 µM in test [10].
